Test results as given in publication PMC9532703, “A novel small molecule RK-019 inhibits FGFR2-amplification gastric cancer cell proliferation and induces apoptosis in vitro and in vivo” (Frontiers in Pharmacology, 2022).

Columns and labels:
Experiment in all cases: Kinase selectivity panel
Format in all cases: biochemical
Conditions in all cases: read-out: Inhibition(%) @ 1 µM RK-019
TSSK3(h) = target: T1, TSSK3(h) (Homo sapiens, UniProt Q96PN8)
T1 construct: purchased Eurofins Discovery Services (KinaseProfiler)
Description: (§1) Median-inhibitory concentration (IC50) and inhibition ratio of kinases by RK-019 was assessed by Eurofins Discovery Services (Dundee, United Kingdom) using the ATP-site competition binding assay in vitro. Firstly, gradient concentration of RK-019 against FGFRs, including FGFR1, FGFR2, FGFR3, and FGFR4, were tested. IC50 value was calculate by the GraphPad Prism software (v8.4.3, GraphPad Software, California, United States). Then, to measure the selectivity prolife of RK-019, a panel of 422 recombinant human kinases was screened at a concentration of 1 µM RK-019. Kinase MAP was drawn by webtools from Cell Signaling Technology, Inc. (www.cellsignal.com).

MLK1(h) = target: T2, MLK1(h) (Homo sapiens, UniProt P80192)
T2 construct: purchased Eurofins Discovery Services (KinaseProfiler)
Description: as §1

PAK4(h) = target: T3, PAK4(h) (Homo sapiens, UniProt O96013)
T3 construct: purchased Eurofins Discovery Services (KinaseProfiler)
Description: as §1

AAK1(h) = target: T4, AAK1(h) (Homo sapiens, UniProt Q2M2I8)
T4 construct: purchased Eurofins Discovery Services (KinaseProfiler)
Description: as §1

[1] = target: T5, PI3 Kinase (p110a/p85a)(h) (Homo sapiens, UniProt P42336)
T5 construct: purchased Eurofins Discovery Services (KinaseProfiler)
Description: as §1

ACK1(h) = target: T6, ACK1(h) (Homo sapiens, UniProt Q07912)
T6 construct: purchased Eurofins Discovery Services (KinaseProfiler)
Description: as §1

PhKγ1(h) = target: T7, PhKγ1(h) (Homo sapiens, UniProt Q16816)
T7 construct: purchased Eurofins Discovery Services (KinaseProfiler)
Description: as §1

WNK4(h) = target: T8, WNK4(h) (Homo sapiens, UniProt Q96J92)
T8 construct: purchased Eurofins Discovery Services (KinaseProfiler)
Description: as §1

CHK2(I157T)(h) = target: T9, CHK2(I157T)(h) (Homo sapiens, UniProt O96017, I157T)
T9 construct: purchased Eurofins Discovery Services (KinaseProfiler)
Description: as §1

Abl(h) = target: T10, Abl(h) (Homo sapiens, UniProt P00519)
T10 construct: purchased Eurofins Discovery Services (KinaseProfiler)
Description: as §1

RIPK1(h) = target: T11, RIPK1(h) (Homo sapiens, UniProt Q13546)
T11 construct: purchased Eurofins Discovery Services (KinaseProfiler)
Description: as §1

Lck(h) activated = target: T12, Lck(h) activated (Homo sapiens, UniProt P06239)
T12 construct: purchased Eurofins Discovery Services (KinaseProfiler)
Description: as §1

cKit(h) = target: T13, cKit(h) (Homo sapiens, UniProt P10721)
T13 construct: purchased Eurofins Discovery Services (KinaseProfiler)
Description: as §1

IRAK4(h) = target: T14, IRAK4(h) (Homo sapiens, UniProt Q9NWZ3)
T14 construct: purchased Eurofins Discovery Services (KinaseProfiler)
Description: as §1

CaMKIδ(h) = target: T15, CaMKIδ(h) (Homo sapiens, UniProt Q8IU85)
T15 construct: purchased Eurofins Discovery Services (KinaseProfiler)
Description: as §1

PIP4K2a(h) = target: T16, PIP4K2a(h) (Homo sapiens, UniProt P48426)
T16 construct: purchased Eurofins Discovery Services (KinaseProfiler)
Description: as §1

Met(M1268T)(h) = target: T17, Met(M1268T)(h) (Homo sapiens, UniProt P08581, M1250T)
T17 construct: purchased Eurofins Discovery Services (KinaseProfiler)
Description: as §1

PhKγ2(h) = target: T18, PhKγ2(h) (Homo sapiens, UniProt P15735)
T18 construct: purchased Eurofins Discovery Services (KinaseProfiler)
Description: as §1

DYRK2(h) = target: T19, DYRK2(h) (Homo sapiens, UniProt Q92630)
T19 construct: purchased Eurofins Discovery Services (KinaseProfiler)
Description: as §1

MSSK1(h) = target: T20, MSSK1(h) (Homo sapiens, UniProt Q9UPE1)
T20 construct: purchased Eurofins Discovery Services (KinaseProfiler)
Description: as §1

AMPKα1(h) = target: T21, AMPKα1(h) (Homo sapiens, UniProt Q13131)
T21 construct: purchased Eurofins Discovery Services (KinaseProfiler)
Description: as §1

Tie2(R849W)(h) = target: T22, Tie2(R849W)(h) (Homo sapiens, UniProt Q02763, R849W)
T22 construct: purchased Eurofins Discovery Services (KinaseProfiler)
Description: as §1

EphA8(h) = target: T23, EphA8(h) (Homo sapiens, UniProt P29322)
T23 construct: purchased Eurofins Discovery Services (KinaseProfiler)
Description: as §1

SLK(h) = target: T24, SLK(h) (Homo sapiens, UniProt Q9H2G2)
T24 construct: purchased Eurofins Discovery Services (KinaseProfiler)
Description: as §1

GSK3β(h) = target: T25, GSK3β(h) (Homo sapiens, UniProt P49841)
T25 construct: purchased Eurofins Discovery Services (KinaseProfiler)
Description: as §1

DYRK3(h) = target: T26, DYRK3(h) (Homo sapiens, UniProt O43781)
T26 construct: purchased Eurofins Discovery Services (KinaseProfiler)
Description: as §1

TrkB(h) = target: T27, TrkB(h) (Homo sapiens, UniProt Q16620)
T27 construct: purchased Eurofins Discovery Services (KinaseProfiler)
Description: as §1

Yes(h) = target: T28, Yes(h) (Homo sapiens, UniProt P07947)
T28 construct: purchased Eurofins Discovery Services (KinaseProfiler)
Description: as §1

Hck(h) activated = target: T29, Hck(h) activated (Homo sapiens, UniProt P08631)
T29 construct: purchased Eurofins Discovery Services (KinaseProfiler)
Description: as §1

Abl(T315I)(h) = target: T30, Abl(T315I)(h) (Homo sapiens, UniProt P00519, T315I)
T30 construct: purchased Eurofins Discovery Services (KinaseProfiler)
Description: as §1

PDHK2(h) = target: T31, PDHK2(h) (Homo sapiens, UniProt Q15119)
T31 construct: purchased Eurofins Discovery Services (KinaseProfiler)
Description: as §1

[2] = target: T32, PI3 Kinase (p110d/p85a)(h) (Homo sapiens, UniProt O00329)
T32 construct: purchased Eurofins Discovery Services (KinaseProfiler)
Description: as §1

PKBα(h) = target: T33, PKBα(h) (Homo sapiens, UniProt P31749)
T33 construct: purchased Eurofins Discovery Services (KinaseProfiler)
Description: as §1

CSK(h) = target: T34, CSK(h) (Homo sapiens, UniProt P41240)
T34 construct: purchased Eurofins Discovery Services (KinaseProfiler)
Description: as §1

[3] = target: T35, PI3 Kinase (p110a(E542K)/p85a)(m) (Mus musculus, UniProt P42337, E542K)
T35 construct: purchased Eurofins Discovery Services (KinaseProfiler)
Description: as §1

[4] = target: T36, PI3 Kinase (p110a(E542K)/p85a)(h) (Homo sapiens, UniProt P42336, E542K)
T36 construct: purchased Eurofins Discovery Services (KinaseProfiler)
Description: as §1

T24 sequence (Q9H2G2 whole entry): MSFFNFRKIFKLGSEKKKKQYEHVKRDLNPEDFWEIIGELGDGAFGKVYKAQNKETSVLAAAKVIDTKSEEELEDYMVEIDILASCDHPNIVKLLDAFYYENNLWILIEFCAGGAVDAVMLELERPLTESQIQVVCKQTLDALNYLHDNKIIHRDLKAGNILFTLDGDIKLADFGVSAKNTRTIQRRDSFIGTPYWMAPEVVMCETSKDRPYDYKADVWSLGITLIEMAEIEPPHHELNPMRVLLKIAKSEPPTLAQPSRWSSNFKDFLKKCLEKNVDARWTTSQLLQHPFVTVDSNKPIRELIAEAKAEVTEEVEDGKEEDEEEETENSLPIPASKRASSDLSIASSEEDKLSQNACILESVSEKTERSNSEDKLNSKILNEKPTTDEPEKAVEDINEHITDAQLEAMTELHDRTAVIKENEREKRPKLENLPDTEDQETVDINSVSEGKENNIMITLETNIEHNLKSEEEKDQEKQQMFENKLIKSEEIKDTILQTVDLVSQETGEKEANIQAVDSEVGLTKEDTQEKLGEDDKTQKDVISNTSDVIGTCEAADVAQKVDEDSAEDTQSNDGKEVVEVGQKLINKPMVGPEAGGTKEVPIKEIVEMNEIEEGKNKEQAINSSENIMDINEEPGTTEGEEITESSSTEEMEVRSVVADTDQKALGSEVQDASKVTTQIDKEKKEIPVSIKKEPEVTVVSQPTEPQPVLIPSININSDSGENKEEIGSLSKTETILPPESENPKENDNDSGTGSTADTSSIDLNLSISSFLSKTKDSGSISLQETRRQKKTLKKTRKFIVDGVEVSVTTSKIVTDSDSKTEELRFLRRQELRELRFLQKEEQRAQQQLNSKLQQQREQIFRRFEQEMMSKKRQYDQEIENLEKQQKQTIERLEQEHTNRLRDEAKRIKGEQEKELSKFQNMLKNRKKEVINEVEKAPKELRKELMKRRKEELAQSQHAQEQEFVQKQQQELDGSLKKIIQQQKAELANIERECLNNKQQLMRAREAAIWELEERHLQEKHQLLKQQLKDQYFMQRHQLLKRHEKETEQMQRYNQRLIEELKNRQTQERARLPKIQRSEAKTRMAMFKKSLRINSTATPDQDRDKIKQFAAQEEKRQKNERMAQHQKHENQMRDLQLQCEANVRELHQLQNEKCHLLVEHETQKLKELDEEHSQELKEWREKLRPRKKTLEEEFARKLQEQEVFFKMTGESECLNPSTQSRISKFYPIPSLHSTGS
T25 sequence (P49841 whole entry): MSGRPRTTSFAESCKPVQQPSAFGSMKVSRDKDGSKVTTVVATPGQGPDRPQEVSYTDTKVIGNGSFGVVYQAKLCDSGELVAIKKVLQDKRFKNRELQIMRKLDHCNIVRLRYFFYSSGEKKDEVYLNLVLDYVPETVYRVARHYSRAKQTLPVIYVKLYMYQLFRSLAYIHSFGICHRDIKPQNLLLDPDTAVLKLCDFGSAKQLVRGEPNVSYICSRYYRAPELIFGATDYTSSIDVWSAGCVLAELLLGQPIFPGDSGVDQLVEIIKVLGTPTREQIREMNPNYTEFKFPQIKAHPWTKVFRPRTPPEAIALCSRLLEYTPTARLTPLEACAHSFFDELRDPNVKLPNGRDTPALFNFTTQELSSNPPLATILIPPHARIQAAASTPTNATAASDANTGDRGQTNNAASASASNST
T22 sequence (Q02763 23-1124 R849W): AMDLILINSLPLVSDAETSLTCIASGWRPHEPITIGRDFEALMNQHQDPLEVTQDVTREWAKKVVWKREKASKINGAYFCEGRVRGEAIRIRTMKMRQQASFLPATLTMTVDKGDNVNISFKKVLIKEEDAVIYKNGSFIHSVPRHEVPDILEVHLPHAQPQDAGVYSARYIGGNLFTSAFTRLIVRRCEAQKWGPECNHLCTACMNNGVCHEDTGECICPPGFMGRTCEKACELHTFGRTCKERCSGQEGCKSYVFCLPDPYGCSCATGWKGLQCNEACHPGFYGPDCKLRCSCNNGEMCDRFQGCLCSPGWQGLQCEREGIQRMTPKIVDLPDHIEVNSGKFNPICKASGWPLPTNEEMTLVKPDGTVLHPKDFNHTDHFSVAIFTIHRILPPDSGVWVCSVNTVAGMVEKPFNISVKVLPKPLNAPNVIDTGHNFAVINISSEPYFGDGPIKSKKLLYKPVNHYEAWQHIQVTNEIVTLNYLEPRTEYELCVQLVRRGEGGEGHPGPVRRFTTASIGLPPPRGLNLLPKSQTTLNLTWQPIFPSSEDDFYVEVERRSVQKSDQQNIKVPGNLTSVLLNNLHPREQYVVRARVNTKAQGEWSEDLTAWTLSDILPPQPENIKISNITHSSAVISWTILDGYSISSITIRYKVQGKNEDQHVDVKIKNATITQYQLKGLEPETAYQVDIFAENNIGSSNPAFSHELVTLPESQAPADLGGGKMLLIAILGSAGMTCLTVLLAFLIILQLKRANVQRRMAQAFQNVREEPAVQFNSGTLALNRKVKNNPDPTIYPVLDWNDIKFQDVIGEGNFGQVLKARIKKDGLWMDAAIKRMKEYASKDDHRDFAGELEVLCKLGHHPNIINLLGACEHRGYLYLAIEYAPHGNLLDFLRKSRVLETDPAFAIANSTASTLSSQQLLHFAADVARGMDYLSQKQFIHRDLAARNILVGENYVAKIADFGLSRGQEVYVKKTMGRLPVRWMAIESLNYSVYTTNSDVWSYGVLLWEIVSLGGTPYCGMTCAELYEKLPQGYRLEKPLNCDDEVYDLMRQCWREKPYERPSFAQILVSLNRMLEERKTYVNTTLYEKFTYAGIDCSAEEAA
T23 sequence (P29322 28-1005): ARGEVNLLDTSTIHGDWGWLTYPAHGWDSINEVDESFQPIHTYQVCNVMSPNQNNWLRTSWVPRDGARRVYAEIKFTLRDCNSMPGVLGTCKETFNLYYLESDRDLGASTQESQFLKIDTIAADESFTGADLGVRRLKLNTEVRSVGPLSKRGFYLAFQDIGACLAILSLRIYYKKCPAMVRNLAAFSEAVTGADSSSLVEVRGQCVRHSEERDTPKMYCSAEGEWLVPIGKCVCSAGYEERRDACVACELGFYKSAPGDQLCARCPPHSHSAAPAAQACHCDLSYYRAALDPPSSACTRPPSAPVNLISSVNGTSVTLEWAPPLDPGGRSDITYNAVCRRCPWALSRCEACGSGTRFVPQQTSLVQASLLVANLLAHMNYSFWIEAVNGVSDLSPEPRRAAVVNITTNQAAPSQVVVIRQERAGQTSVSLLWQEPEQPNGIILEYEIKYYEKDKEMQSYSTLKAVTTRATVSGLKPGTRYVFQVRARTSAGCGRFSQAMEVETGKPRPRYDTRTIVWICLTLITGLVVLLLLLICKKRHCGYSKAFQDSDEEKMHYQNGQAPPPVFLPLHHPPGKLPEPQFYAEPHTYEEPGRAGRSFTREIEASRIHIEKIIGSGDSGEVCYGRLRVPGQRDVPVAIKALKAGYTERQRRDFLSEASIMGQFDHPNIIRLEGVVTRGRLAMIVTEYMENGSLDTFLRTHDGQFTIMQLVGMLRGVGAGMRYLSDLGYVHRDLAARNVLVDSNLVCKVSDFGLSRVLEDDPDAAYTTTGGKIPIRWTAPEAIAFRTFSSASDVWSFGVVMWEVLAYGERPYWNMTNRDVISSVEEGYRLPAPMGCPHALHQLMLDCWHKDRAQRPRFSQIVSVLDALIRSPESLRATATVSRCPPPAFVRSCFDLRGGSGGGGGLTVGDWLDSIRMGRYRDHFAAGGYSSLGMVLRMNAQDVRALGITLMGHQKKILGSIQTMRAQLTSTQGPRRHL
T2 sequence (P80192 whole entry): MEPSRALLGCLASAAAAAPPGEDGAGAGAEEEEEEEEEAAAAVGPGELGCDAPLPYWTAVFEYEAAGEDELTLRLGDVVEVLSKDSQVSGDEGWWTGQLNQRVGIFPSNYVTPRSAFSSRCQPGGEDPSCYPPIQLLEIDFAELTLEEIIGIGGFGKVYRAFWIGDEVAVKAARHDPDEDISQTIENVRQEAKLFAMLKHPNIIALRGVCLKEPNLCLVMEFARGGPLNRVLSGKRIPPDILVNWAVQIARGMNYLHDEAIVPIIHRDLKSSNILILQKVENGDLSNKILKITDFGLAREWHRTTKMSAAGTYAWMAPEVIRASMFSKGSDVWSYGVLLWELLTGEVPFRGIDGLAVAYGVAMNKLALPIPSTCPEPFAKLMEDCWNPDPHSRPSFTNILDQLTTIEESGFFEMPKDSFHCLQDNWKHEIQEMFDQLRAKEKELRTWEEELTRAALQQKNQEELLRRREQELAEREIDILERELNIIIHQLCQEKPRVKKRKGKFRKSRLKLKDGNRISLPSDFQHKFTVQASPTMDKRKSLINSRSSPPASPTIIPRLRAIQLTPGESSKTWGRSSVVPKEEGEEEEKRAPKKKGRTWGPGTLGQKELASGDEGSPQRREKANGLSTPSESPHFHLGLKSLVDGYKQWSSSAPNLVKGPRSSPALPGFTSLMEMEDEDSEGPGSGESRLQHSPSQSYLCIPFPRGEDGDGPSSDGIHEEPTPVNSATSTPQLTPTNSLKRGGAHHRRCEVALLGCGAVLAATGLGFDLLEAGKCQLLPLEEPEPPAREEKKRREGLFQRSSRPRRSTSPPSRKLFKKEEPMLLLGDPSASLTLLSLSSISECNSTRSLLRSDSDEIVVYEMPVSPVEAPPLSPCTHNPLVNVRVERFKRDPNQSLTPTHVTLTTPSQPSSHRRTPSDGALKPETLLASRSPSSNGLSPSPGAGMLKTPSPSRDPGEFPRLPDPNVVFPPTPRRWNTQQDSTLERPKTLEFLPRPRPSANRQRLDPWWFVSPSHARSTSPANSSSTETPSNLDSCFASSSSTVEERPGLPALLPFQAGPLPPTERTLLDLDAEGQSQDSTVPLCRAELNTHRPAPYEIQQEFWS

COc1cc(OC)cc(N(CCN[C@H](C)CO)c2ccc3ncc(-c4cnn(C)c4)c(=O)n3c2)c1 [RK-019, (R)-7-((3,5-dimethoxyphenyl) (2-((1-hydroxypropan-2-yl)amino)ethyl)amino)-3-(1-methyl-1H-pyrazol-4-yl)-4H-pyrido [1,2-a]pyrimidin-4-one]
activity at 1 µM (TSSK3(h)): 102%
activity at 1 µM (MLK1(h)): 99%
activity at 1 µM (PAK4(h)): 82%
activity at 1 µM (AAK1(h)): 91%
activity at 1 µM [1]: 101%
activity at 1 µM (ACK1(h)): 104%
activity at 1 µM (PhKγ1(h)): 93%
activity at 1 µM (WNK4(h)): 86%
activity at 1 µM (CHK2(I157T)(h)): 100%
activity at 1 µM (Abl(h)): 40%
activity at 1 µM (RIPK1(h)): 85%
activity at 1 µM (Lck(h) activated): 36%
activity at 1 µM (cKit(h)): 73%
activity at 1 µM (IRAK4(h)): 100%
activity at 1 µM (CaMKIδ(h)): 98%
activity at 1 µM (PIP4K2a(h)): 102%
activity at 1 µM (Met(M1268T)(h)): 71%
activity at 1 µM (PhKγ2(h)): 88%
activity at 1 µM (DYRK2(h)): 94%
activity at 1 µM (MSSK1(h)): 135%
activity at 1 µM (AMPKα1(h)): 107%
activity at 1 µM (Tie2(R849W)(h)): 82%
activity at 1 µM (EphA8(h)): 59%
activity at 1 µM (SLK(h)): 99%
activity at 1 µM (GSK3β(h)): 96%
activity at 1 µM (DYRK3(h)): 88%
activity at 1 µM (TrkB(h)): 94%
activity at 1 µM (Yes(h)): 29%
activity at 1 µM (Hck(h) activated): 60%
activity at 1 µM (Abl(T315I)(h)): 66%
activity at 1 µM (PDHK2(h)): 104%
activity at 1 µM [2]: 93%
activity at 1 µM (PKBα(h)): 102%
activity at 1 µM (CSK(h)): 94%
activity at 1 µM [3]: 99%
activity at 1 µM [4]: 98%
